Values after ≈ are worked out from the molar mass of the structure shown. Where two headings read alike, the source gives them in different places.
Experiments:
Rhino 63 = test: Multicycle CPE reduction assay; format: cell-based, rhinovirus 63; conditions: Enterovirus; 37° C. in HeLa cells
Description: (§1) The test compounds were evaluated for anti-picornavirus activity by a multicycle cytopathic effect (CPE) reduction assay. The antiviral activity was initially determined using an MTS [3-(4,5-dimethylthiazol-2-yl)-5-(3-carboxymethoxyphenyl)-2-(4-sulfophenyl)-2H-tetrazolium]-based CPE reduction assay.
(§2) In this regard, cells grown to confluence in 96-well plates were infected with 100 50% cell culture infective doses (CCID50) of virus. After an adsorption period of 2 hrs at 37° C., virus was removed and serial dilutions of the compounds were added. […] After removal of the medium, 90 μl of a culture medium and 10 μl of MTS-phenazine methosulfate (Promega, Leiden, The Netherlands) were added to each well. After an incubation period of 2 hrs at 37° C., the optical density (OD) of each well was read at 498 nm in a microplate reader.
(§3) CPE values for evaluating antiviral activity were calculated using the following Mathmatic Formula 3: […]
(§4) The 50% effective concentration (EC50) and the 50 cytotoxic concentration (CC50) were defined as the concentrations of compound that offered 50% protection against virus-induced CPE and that killed cells by 50%, respectively, and were calculated using logarithmic interpolation.

Entero 71 = test: Multicycle CPE reduction assay; format: cell-based, enterovirus 71; conditions: Enterovirus A; 37° C. in RD cells
Description: as §1, §2, §3, §4

Rhino 15 = test: Multicycle CPE reduction assay; format: cell-based, rhinovirus 15; conditions: Enterovirus; 37° C. in HeLa cells
Description: as §1, §2, §3, §4

Polio 1 = test: microbe, parasite or virus in culture; format: cell-based, poliovirus 1; conditions: Enterovirus C, BGM, read-out: Polio 1 EC50
Rhino 89 = test: Multicycle CPE reduction assay; format: cell-based, rhinovirus 89; conditions: Enterovirus; 37° C. in HeLa cells
Description: as §1, §2, §3, §4

Rhino 39 = test: Multicycle CPE reduction assay; format: cell-based, rhinovirus 39; conditions: Enterovirus; 37° C. in HeLa cells
Description: as §1, §2, §3, §4

Rhino 2 = test: Multicycle CPE reduction assay; format: cell-based, rhinovirus 2; conditions: Enterovirus; 37° C. in HeLa cells
Description: as §1, §2, §3, §4

Rhino 72 = test: Multicycle CPE reduction assay; format: cell-based, rhinovirus 72; conditions: Enterovirus; 37° C. in HeLa cells
Description: as §1, §2, §3, §4

Rhino 14 = test: Multicycle CPE reduction assay; format: cell-based, rhinovirus 14; conditions: Enterovirus; 37° C. in HeLa cells
Description: as §1, §2, §3, §4

Rhino 29 = test: Multicycle CPE reduction assay; format: cell-based, rhinovirus 29; conditions: Enterovirus; 37° C. in HeLa cells
Description: as §1, §2, §3, §4

uninfected cell cultures = test: Cytotoxicity (CC50), MTS-based multicycle CPE reduction assay, Experimental Example 2; format: cell-based; conditions: Table 5, listed as Ex. 74
Description: as §1, §2
(§5) CPE values for evaluating cytotoxicity were calculated using the following Mathmatic Formula 4: […]
as §4

[1] = as above; format: cell-based; conditions: Table 5
Description: as §1, §2, §5, §4

Coxsackie A21 = test: Multicycle CPE reduction assay; format: cell-based, Coxsackievirus A21; conditions: Enterovirus C, A21, MRC5, read-out: Coxsackie A21 EC50
Rhino 41 = test: Multicycle CPE reduction assay; format: cell-based, rhinovirus 41; conditions: Enterovirus; 37° C. in HeLa cells
Description: as §1, §2, §3, §4

Rhino 59 = test: Multicycle CPE reduction assay; format: cell-based, rhinovirus 59; conditions: Enterovirus; 37° C. in HeLa cells
Rhino 70 = test: Multicycle CPE reduction assay; format: cell-based, rhinovirus 70
Description: as §1, §2, §3, §4

Echo 9 = test: Multicycle CPE reduction assay; format: cell-based, echovirus 9; conditions: Enterovirus B, MRC5; 37° C. in MRC-5 cells
Description: as §1, §2, §3, §4

Rhino 86 = test: Multicycle CPE reduction assay; format: cell-based, rhinovirus 86; conditions: Enterovirus; 37° C. in HeLa cells
Description: as §1, §2, §3, §4

Rhino 42 = test: Multicycle CPE reduction assay; format: cell-based, rhinovirus 42; conditions: Enterovirus; 37° C. in HeLa cells
Description: as §1, §2, §3, §4

Coxsackie A16 = test: Multicycle CPE reduction assay; format: cell-based, Coxsackievirus A16; conditions: Enterovirus A, A16, MRC5; 37° C. in MRC-5 cells
Description: as §1, §2, §3, §4

Rhino 9 = test: Multicycle CPE reduction assay; format: cell-based, rhinovirus 9; conditions: Enterovirus; 37° C. in HeLa cells
Description: as §1, §2, §3, §4

Echo 11 = test: Multicycle CPE reduction assay; format: cell-based, echovirus 11; conditions: Enterovirus B; 37° C. in BGM cells
Description: as §1, §2, §3, §4

Rhino 45 = test: Multicycle CPE reduction assay; format: cell-based, rhinovirus 45; conditions: 37° C. in HeLa cells
Description: as §1, §2, §3, §4

Rhino 85 = test: Multicycle CPE reduction assay; format: cell-based, rhinovirus 85; conditions: Enterovirus; 37° C. in HeLa cells
Description: as §1, §2, §3, §4

[2] = in vivo; cited from earlier work
[3] = in vivo; cited from earlier work; remark: listed apart in the source
Coxsackie-virus B3 = test: Cytopathic effect (CPE) inhibition assay; format: cell-based, Coxsackievirus B3; conditions: Table 3, HeLa, 37° C., 2 days
Coxsackie-virus A24 (DN) = test: Cytopathic effect (CPE) inhibition assay; format: cell-based, Coxsackievirus A24; conditions: Table 3, MRC-5, 37° C., 2 days
Coxsackie-virus B1 = test: Cytopathic effect (CPE) inhibition assay; format: cell-based, Coxsackievirus B1; conditions: Table 3, HeLa, 37° C., 2 days
Polio-virus 3 = test: microbe, parasite or virus in culture; format: cell-based, Poliovirus 3
[4] = tested on: mock-infected cells (HeLa, MRC-5, RD); conditions: human
Coxsackie-virus A24 (HG) = test: Cytopathic effect (CPE) inhibition assay; format: cell-based, Coxsackievirus A24; conditions: Table 3, MRC-5, 37° C., 2 days
Polio 3 = test: microbe, parasite or virus in culture; format: cell-based, poliovirus 3; conditions: Enterovirus C, BGM, read-out: Polio 3 EC50
[5] = tested on: echovirus 9 and echovirus 11; test: Multicycle CPE reduction assay, text summary; format: cell-based; conditions: Enterovirus B; Table 5; read-out: EC50 against echovirus 9 and echovirus 11
Coxsackie A9 = test: Multicycle CPE reduction assay; format: cell-based, Coxsackievirus A9; conditions: Enterovirus B, 37° C. in BGM cells
polioviruses 1, 2 and 3 = test: organism not typed; format: cell-based; conditions: read-out: EC50 against polioviruses 1, 2 and 3
Coxsackie B3 = test: Multicycle CPE reduction assay; format: cell-based, Coxsackievirus B3; conditions: Enterovirus B, 37° C. in Vero cells
Description: as §1, §2, §3, §4

in vitro = conditions: human, CC50

Row | SMILES | EC50 (Rhino 63) [µM] | EC50 (Entero 71) [µM] | EC50 (Rhino 15) [µM] | EC50 (Polio 1) [µM] | EC50 (Rhino 89) [µM] | EC50 (Rhino 39) [µM] | EC50 (Rhino 2) [µM] | EC50 (Rhino 14) [µM] | EC50 (Rhino 29) [µM] | CC50 at 3 days [1] [µM] | EC50 (Rhino 41) [µM] | melting point [°C] | EC50 (Echo 9) [µM] | EC50 (Rhino 9) [µM] | EC50 (Echo 11) [µM] | EC50 (Rhino 45; Enterovirus, HeLa) [µM] | EC50 (Rhino 85) [µM] | other results
1 | CC(=O)Oc1cc(C)ccc1C1(OC(C)=O)C(=O)c2ccccc2C1=O [Example 74, 2-2-Acetoxy-1,3-dioxo-2,3-dihydro-1H-inden-2-yl] | > 50 | 3.3 ± 1.6 | > 50 | 20 ± 14 | > 50 | > 50 | > 50 | > 50 | > 50 | ≥ 100 | > 50 | 145 to 147 | 0.61 ± 0.038 | > 50 | 0.7 ± 0.24 | > 50 | > 50 | EC50 (Rhino 72): > 50 µM; CC50 (uninfected cell cultures): > 100 µM; EC50 (Coxsackie A21): 26 ± 0.34 µM; EC50 (Rhino 59): > 50 µM; EC50 (Rhino 70; Enterovirus, HeLa, read-out: Rhino 70 EC50, 37° C. in HeLa cells): > 50 µM; EC50 (Rhino 86): 26 ± 18 µM; EC50 (Rhino 42): > 50 µM; EC50 (Coxsackie A16): 13 ± 0.32 µM
2 | Cc1cc(CCCCCCCOc2ccc(C3=NCCO3)cc2)on1 [disoxaril] | – | – | – | – | – | – | – | – | – | – | – | – | – | – | – | – | – | metabolization and excretion [2]: rapid; bioavailability [3]: low
3 | CCCCC(=O)NC1(c2ccc(C(C)C)cc2OC(=O)CCCC)C(=O)c2ccccc2C1=O [Example 69, 2-(1,3-Dioxo-2-pentanamido-2,3-dihydro-1H-inden-2-yl)-5-isopropylphenyl pentanoate] | – | – | – | – | – | – | – | – | – | – | – | 128 to 130 | – | – | – | – | – | EC50 Coxsackie-virus B3 (Coxsackie-virus B3): <0.01 mg/L; EC50 Coxsackie-virus A24 (DN) (Coxsackie-virus A24 (DN)): <1.0 mg/L; EC50 Coxsackie-virus B1 (Coxsackie-virus B1): <0.01 mg/L; EC50 Polio-virus 3 (Polio-virus 3; Table 3, HeLa, 37° C., 2 days): <1.0 mg/L; CC50 [4]: >117 mg/L; EC50 Coxsackie-virus A24 (HG) (Coxsackie-virus A24 (HG)): <1.0 mg/L
4 | CC(=O)Oc1cc(C(C)C)ccc1C1(OC(C)=O)C(=O)c2cccc(N)c2C1=O (centres unmarked) [Example 36, Acetic acid 2-(2-acetoxy-4-isopropyl-phenyl)-4-amino-1,3-dioxo-indan-2-yl ester] | > 10 | 0.0067 | 1.5 ± 0.24 | 0.22 ± 0.05 | 0.49 ± 0.038 | 1.4 ± 0.2 | 7.8 ± 0.57 | 0.35 ± 0.32 | 5.5 ± 0.72 | > 50 | 0.54 ± 0.003 | 148 to 151 | 0.011 ± 0.0032 | 1.2 ± 0.12 | 0.0082 ± 0.0019 | ≤ 0.078 | 7.5 ± 1.2 | EC50 (Polio 3): < 0.01 µM; EC50 [5]: 0.0082 µM; EC50 (Coxsackie A9): 0.007 ± 0.00018 µM; EC50 (Coxsackie-virus B3; Enterovirus B, HeLa37, 48 h, read-out: EC50 Coxsackie-virus B3): < 0.01 mg/L; EC50 (Coxsackie-virus A24 (DN); Enterovirus C, MRC5, 48 h): < 0.1 mg/L; EC50 (Coxsackie-virus B1; Enterovirus B, HeLa37, 48 h, read-out: EC50 Coxsackie-virus B1): < 0.01 mg/L; EC50 (Rhino 70; Enterovirus, HeLa, 37° C. in HeLa cells, read-out: Rhino 70 EC50): ≤ 0.078 µM; EC50 (Rhino 70; read-out: Rhino 70 EC50, 37° C. in HeLa cells, listed as Ex. 36): > 0.078 µM; EC50 (polioviruses 1, 2 and 3): 0.01 µM; EC50 (Polio-virus 3; Enterovirus C, HeLa37, 48 h, read-out: EC50 Polio-virus 3): < 0.01 mg/L; EC50 (Coxsackie B3): < 0.01 µM; EC50 (Rhino 45; listed as Ex. 36): < 0.078 µM; CC50 (in vitro): 9.42 mg/L (≈ 23.8 µM); EC50 (Coxsackie-virus A24 (HG); Enterovirus C, MRC5, 48 h): < 0.01 mg/L

— patent US9833423B2 (KOREA RESEARCH INSTITUTE OF CHEMICAL TECHNOLOGY, priority 2011, dated 2017)
